In article PMC9696794, “Synthesis and Antimicrobial Activity of Short Analogues of the Marine Antimicrobial Peptide Turgencin A: Effects of SAR Optimizations, Cys-Cys Cyclization and Lipopeptide Modifications” (International Journal of Molecular Sciences, 2022):
Values after ≈ are worked out from the molar mass of the structure shown. Where a SMILES comes first, the peptide text is derived from it. Bridges are numbered along the chain shown (N, C = ends). The star is where a group is joined. Decanoyl = CCCCCCCCCC(=O)*; Octanoyl = CCCCCCCC(=O)*

How the values were obtained:
[1] = test system: B. subtilis (Bs, ATCC 23857); experiment: microbe, parasite or virus in culture; assay type: cell-based, Bacillus subtilis; settings: ATCC 23857, 24 h
Procedure, shortened: (§1)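 Cultures grown in Mueller–Hinton broth were adjusted by OD600 to 2.5–3 × 10^4 CFU/mL and mixed with two-fold peptide dilutions from 256 to 1 µg/mL. Plates were incubated at 35 °C with OD595 monitored every hour for 24 h.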

[2] = test system: C. glutamicum (Cg, ATCC 13032); experiment: microbe, parasite or virus in culture; assay type: cell-based, Corynebacterium glutamicum; settings: ATCC 13032, 24 h
Procedure, shortened: as §1

[3] = test system: S. aureus (Sa, ATCC 9144); experiment: microbe, parasite or virus in culture; assay type: cell-based, Staphylococcus aureus; settings: ATCC 9144, 24 h
Procedure, shortened: as §1

[4] = test system: S. epidermidis RP62A (Se, ATCC 35984); experiment: microbe, parasite or virus in culture; assay type: cell-based, Staphylococcus epidermidis; settings: ATCC 35984, 24 h
Procedure, shortened: as §1

E. coli (Ec, ATCC 25922) = experiment: microbe, parasite or virus in culture; assay type: cell-based, Escherichia coli; settings: ATCC 25922, 24 h
Procedure, shortened: as §1

[5] = test system: P. aeruginosa (Pa, ATCC 27853); experiment: microbe, parasite or virus in culture; assay type: cell-based, Pseudomonas aeruginosa; settings: ATCC 27853, 24 h
Procedure, shortened: as §1

all bacterial strains = experiment: Antibacterial MIC assay, all bacterial strains together (range or geometric mean); assay type: cell-based; settings: for GM (geometric mean of the MIC values against all bacterial strains): Table 1, six bacterial strains; for GM of MIC Tot. bact.: Table S3, all bacterial test strains, MIC >256 set to 256
Procedure, shortened: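 Broth microdilution in Mueller–Hinton broth against B. subtilis, C. glutamicum, S. aureus, S. epidermidis RP62A, E. coli and P. aeruginosa; inoculum 2.5–3 × 10^4 CFU/mL, 35 °C, OD595 read hourly for 24 h. MIC: lowest peptide concentration giving OD below 10% of growth control; geometric mean across strains, triplicate.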

A. pullulans (Ap) = experiment: microbe, parasite or virus in culture; assay type: cell-based, Aurobasidium pollulans; settings: 48 h
Procedure, shortened: (§2)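 Overnight cultures in potato dextrose broth with 2% glucose at 25–30 °C were diluted to approx. 4 × 10^5 spores/mL and mixed 1:1 with two-fold peptide dilutions plated at 256 to 1 µg/mL. After 48 h at room temperature, OD600 was read. MIC was the lowest concentration giving OD below 10% of the growth control, in triplicate.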

[6] = test system: C. albicans (Ca, ATCC 10231); experiment: microbe, parasite or virus in culture; assay type: cell-based, Candida albicans; settings: ATCC 10231, 48 h
Procedure, shortened: as §2

Rhodotorula sp. (Rh) = experiment: microbe, parasite or virus in culture; assay type: cell-based; settings: 48 h
Procedure, shortened: as §2

[7] = test system: human red blood cells (RBC); experiment: Haemolytic activity assay; assay type: cell-based; settings: for Selectivity index (SI) G- / Selectivity index (SI) G+ / Selectivity index (SI) Fungi: Table S3, highest tested concentration used where EC50 above it; for Selectivity index (SI) G-: EC50/GM of Gram-negative strains; for Selectivity index (SI) G+: EC50/GM of Gram-positive strains; for Selectivity index (SI) Fungi: EC50/GM of fungi; for SI (selectivity index = EC50/GM): haemolytic EC50 over GM of MIC against all bacterial strains, Table 1; for RBC Tox. (EC50), haemolytic activity: human RBC, 1 h, 37 °C, concentration giving 50% haemolysis
Procedure, shortened: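 Washed human erythrocytes (1% hematocrit final) incubated 1 h at 37 °C with agitation with lipopeptides at 500–3.9 μM in PBS (≤1% DMSO), duplicates. Haemoglobin release read at 545 nm relative to 0.1% Triton X-100; EC50 is 50% haemolysis, averaged from three experiments.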

[8] = test system: E. coli MC4100 (wild type, WT); experiment: microbe, parasite or virus in culture; settings: wild type
Method: (§3) All cyclic and linear peptides were screened for antibacterial activity against four Gram-positive strains: B. subtilis (Bs, ATCC 23857), C. glutamicum (Cg, ATCC 13032), S. aureus (Sa, ATCC 9144) and S. epidermidis RP62A (Se, ATCC 35984), and two Gram-negative strains: E. coli (Ec, ATCC 25922) and P. aeruginosa (Pa, ATCC 27853). The activity was assessed using a broth microdilution assay according to a modified CLSI-based method. Briefly, overnight bacterial cultures were grown in Mueller–Hinton (MH) broth medium (Difco Laboratories, Detroit, MI, USA) for 2 h at room temperature. The optical density (OD600) was measured, and the bacterial suspensions were adjusted to 2.5–3 × 10^4 CFU/mL in MH medium. The bacterial suspension (50 µL) was distributed in 96-well plates (Nunc, Roskilde, Denmark) preloaded with two-fold dilution series (256 to 1 µg/mL) of peptide solutions (50 µL), giving a final well volume of 100 µL. The microplates were incubated in an EnVision 2103 microplate reader (PerkinElmer, Llantrisant, UK) at 35 °C, with OD595 recorded every hour for 24 h. MIC was defined as the lowest concentration of peptides showing an optical density less than 10% of the negative (growth) control, consisting of bacterial suspension and water. Polymyxin B sulfate (Sigma-Aldrich, St. Louis, MO, USA) and chlorhexidine acetate (CHX, Fresenius Kabi, Halden, Norway), both with concentrations ranging from 12.5 to 0.09 μg/mL, served as positive (growth inhibition) controls. All peptides were tested in triplicate.
(§4) MIC values were determined for all cyclic peptides against two E. coli strains: wild type (WT) MC4100 and the hyperpermeable variant NR698, having a deficient outer membrane. The NR698 strain, containing lptD4213/imp4213 mutation, was kindly provided by M. Grabowicz (Emory University School of Medicine, Rollins Research Center, Atlanta, GA, USA). The assay was performed in the same way as previously described for the antibacterial MIC assay.

[9] = test system: E. coli NR698 (outer membrane permeable mutant, imp4213); experiment: microbe, parasite or virus in culture; settings: MC4100 NR698 imp4213, deficient outer membrane
Method: as §3, §4

[10] = test system: Gram-positive bacterial strains; settings: Table S3; MIC >256 set to 256
Procedure, shortened: as §1

[11] = test system: Gram-negative bacterial strains (E. coli and P. aeruginosa); experiment: Antibacterial MIC assay, Gram-negative strains together (range or geometric mean); assay type: cell-based; settings: Table S3; MIC >256 set to 256
Procedure, shortened: as §1

[12] = test system: fungi (A. pullulans, C. albicans, Rhodotorula sp.); experiment: Antifungal MIC assay, all fungi together (range or geometric mean); assay type: cell-based; settings: Table S3; MIC >128 set to 128
Procedure, shortened: as §2

| SMILES | Antimicrobial Activity (MIC) Gram + Bs [1] | Antimicrobial Activity (MIC) Gram + Cg [2] | Antimicrobial Activity (MIC) Gram + Sa [3] | Antimicrobial Activity (MIC) Gram + Se [4] | Antimicrobial Activity (MIC) Gram − Ec (E. coli (Ec, ATCC 25922)) | Antimicrobial Activity (MIC) Gram − Pa [5] | GM (geometric mean of the MIC values against all bacterial strains) (all bacterial strains) | GM of MIC Tot. bact. (all bacterial strains) | Antimicrobial Activity (MIC) Fungi Ap (A. pullulans (Ap)) | Antimicrobial Activity (MIC) Fungi Ca [6] | Antimicrobial Activity (MIC) Fungi Rh (Rhodotorula sp. (Rh)) | Selectivity index (SI) G- [7] | Selectivity index (SI) G+ [7] | Selectivity index (SI) Fungi [7] | RBC Tox. (EC50), haemolytic activity [7] | MIC E. coli MC4100 (WT) [8] | MIC E. coli NR698 (mutant) [9] | GM of MIC G+ [10] | GM of MIC G- [11] | GM of MIC Fungi [12] | other results |
| --- | --- | --- | --- | --- | --- | --- | --- | --- | --- | --- | --- | --- | --- | --- | --- | --- | --- | --- | --- | --- | --- |
| CCCCCCCC(=O)N[C@H]1CSSC[C@@H](C(=O)N[C@@H](CCCCN)C(=O)N[C@@H](CC(C)C)C(N)=O)NC(=O)[C@H](CCCCN)NC(=O)[C@H](Cc2c[nH]c3ccccc23)NC(=O)CNC(=O)CNC(=O)[C@@H]2CCCN2C(=O)[C@H](CCCCN)NC(=O)[C@H](CCCCN)NC(=O)CNC1=O [Peptide C8-cTurg-1, C8 -(CGKKPGGWKC)KL-NH2] (Octanoyl-CGKKPGGWKCKL-NH2; disulfide 1-10) | 4 µg/mL | 4 µg/mL | 128 µg/mL | 32 µg/mL | 32 µg/mL | 128 µg/mL | 25 µg/mL | 25 µg/mL | 64 µg/mL | 64 µg/mL | 8 µg/mL | > 15 | > 59 | > 29 | >942 µg/mL | 16 µg/mL (≈ 11.2 µM) | 8 µg/mL (≈ 5.6 µM) | 16 µg/mL | 64 µg/mL | 32 µg/mL | SI (selectivity index = EC50/GM) [7]: >37 |
| CCCCCCCC(=O)N[C@H]1CSSC[C@@H](C(=O)N[C@@H](CCCNC(=N)N)C(=O)N[C@@H](CC(C)C)C(N)=O)NC(=O)[C@H](CCCNC(=N)N)NC(=O)[C@H](Cc2c[nH]c3ccccc23)NC(=O)[C@H](Cc2c[nH]c3ccccc23)NC(=O)CNC(=O)[C@H](Cc2c[nH]c3ccccc23)NC(=O)[C@H](CCCNC(=N)N)NC(=O)[C@H](CCCNC(=N)N)NC(=O)CNC1=O [Peptide C8-cTurg-6, C8- (CGRRWGWWRC)RL-NH2] (Octanoyl-CGRRWGWWRCRL-NH2; disulfide 1-10) | 4 µg/mL | 4 µg/mL | 8 µg/mL | 4 µg/mL | 8 µg/mL | 16 µg/mL | 6 µg/mL | 6 µg/mL | 64 µg/mL | 64 µg/mL | 32 µg/mL | 3 | 6 | 1 | 30 µg/mL | 8 µg/mL (≈ 4.55 µM) | 8 µg/mL (≈ 4.55 µM) | 5 µg/mL | 11 µg/mL | 51 µg/mL | SI (selectivity index = EC50/GM) [7]: 5 |
| CCCCCCCCCC(=O)N[C@H]1CSSC[C@@H](C(=O)N[C@@H](CCCCN)C(=O)N[C@@H](CC(C)C)C(N)=O)NC(=O)[C@H](CCCCN)NC(=O)[C@H](Cc2c[nH]c3ccccc23)NC(=O)CNC(=O)CNC(=O)[C@@H]2CCCN2C(=O)[C@H](CCCCN)NC(=O)[C@H](CCCCN)NC(=O)CNC1=O [Peptide C10-cTurg-1, C10 -(CGKKPGGWKC)KL-NH2] (Decanoyl-CGKKPGGWKCKL-NH2; disulfide 1-10) | 2 µg/mL | 2 µg/mL | 16 µg/mL | 4 µg/mL | 8 µg/mL | 32 µg/mL | 6 µg/mL | 6 µg/mL | 32 µg/mL | 64 µg/mL | 4 µg/mL | > 60 | > 239 | > 47 | >956 µg/mL | 8 µg/mL (≈ 5.49 µM) | 4 µg/mL (≈ 2.75 µM) | 4 µg/mL | 16 µg/mL | 20 µg/mL | – |
| CCCCCCCCCC(=O)N[C@H]1CSSC[C@@H](C(=O)N[C@@H](CCCCN)C(=O)N[C@@H](CC(C)C)C(N)=O)NC(=O)[C@H](CCCCN)NC(=O)[C@H](Cc2c[nH]c3ccccc23)NC(=O)CNC(=O)[C@H](Cc2c[nH]c3ccccc23)NC(=O)[C@H](Cc2c[nH]c3ccccc23)NC(=O)[C@H](CCCCN)NC(=O)[C@H](CCCCN)NC(=O)CNC1=O [Peptide C10-cTurg-2, C10- (CGKKWWGWKC)KL-NH2] (Decanoyl-CGKKWWGWKCKL-NH2; disulfide 1-10) | 2 µg/mL | 4 µg/mL | 4 µg/mL | 4 µg/mL | 8 µg/mL | 8 µg/mL | 5 µg/mL | 5 µg/mL | 32 µg/mL | 64 µg/mL | 16 µg/mL | 13 | 32 | 3 | 106 µg/mL | 8 µg/mL (≈ 4.78 µM) | 4 µg/mL (≈ 2.39 µM) | 3 µg/mL | 8 µg/mL | 32 µg/mL | SI (selectivity index = EC50/GM) [7]: 24 |
